Measured values published in patent US20190175571A1, “IMIDAZOLE DERIVATIVES AND THEIR USE IN THE TREATMENT OF AUTOIMMUNE OR INFLAMMATORY DISEASES OR CANCERS” (GLAXOSMITHKLINE INTELLECTUAL PROPERTY (NO.2) LIMITED, priority 2016, published 2019).

What was measured:
BRD2 BD2 = target: T1, BRD2 BD2 (Homo sapiens, UniProt P25440, Y113A); assay: TR-FRET competition assay, BRD2 BD2; format: binding; conditions: TR-FRET competition with Reference Compound X; range stated for the listed group; read-out: mean pIC50 in the BRD2 BD2 assay (converted)
T1 construct: BRD2 (1-473) (Y113A) and (Y386A); made in house; host or cells: E. coli (pET15b)
T1 sequence (P25440 1-473 Y113A): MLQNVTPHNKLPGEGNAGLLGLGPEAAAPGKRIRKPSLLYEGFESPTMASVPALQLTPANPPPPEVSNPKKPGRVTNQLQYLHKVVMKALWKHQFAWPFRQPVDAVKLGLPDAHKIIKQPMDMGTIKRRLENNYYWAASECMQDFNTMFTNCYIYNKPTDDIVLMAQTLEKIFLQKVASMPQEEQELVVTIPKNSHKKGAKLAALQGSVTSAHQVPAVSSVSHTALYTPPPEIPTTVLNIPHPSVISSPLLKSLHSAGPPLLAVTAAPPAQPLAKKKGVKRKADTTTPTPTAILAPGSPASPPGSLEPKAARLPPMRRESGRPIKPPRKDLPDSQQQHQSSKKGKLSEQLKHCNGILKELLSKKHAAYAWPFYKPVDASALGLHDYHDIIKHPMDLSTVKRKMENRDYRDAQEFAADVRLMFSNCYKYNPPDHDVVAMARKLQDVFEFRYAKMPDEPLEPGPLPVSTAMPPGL

BRDT BD1 = target: T2, BRDT BD1 (Homo sapiens, UniProt Q58F21, Y309A); assay: TR-FRET competition assay, BRDT BD1; format: binding; conditions: TR-FRET competition with Reference Compound X; range stated for the listed group; read-out: mean pIC50 in the BRDT BD1 assay (converted)
T2 construct: BRDT (1-397) (Y66A) and (Y309A); made in house; host or cells: E. coli (pET28a)

BRD2 BD1 = target: T3, BRD2 BD1 (Homo sapiens, UniProt P25440, Y386A); assay: TR-FRET competition assay, BRD2 BD1; format: binding; conditions: TR-FRET competition with Reference Compound X; range stated for the listed group; read-out: mean pIC50 in the BRD2 BD1 assay (converted)
T3 construct: BRD2 (1-473) (Y113A) and (Y386A); made in house; host or cells: E. coli (pET15b)
T3 sequence (P25440 1-473 Y386A): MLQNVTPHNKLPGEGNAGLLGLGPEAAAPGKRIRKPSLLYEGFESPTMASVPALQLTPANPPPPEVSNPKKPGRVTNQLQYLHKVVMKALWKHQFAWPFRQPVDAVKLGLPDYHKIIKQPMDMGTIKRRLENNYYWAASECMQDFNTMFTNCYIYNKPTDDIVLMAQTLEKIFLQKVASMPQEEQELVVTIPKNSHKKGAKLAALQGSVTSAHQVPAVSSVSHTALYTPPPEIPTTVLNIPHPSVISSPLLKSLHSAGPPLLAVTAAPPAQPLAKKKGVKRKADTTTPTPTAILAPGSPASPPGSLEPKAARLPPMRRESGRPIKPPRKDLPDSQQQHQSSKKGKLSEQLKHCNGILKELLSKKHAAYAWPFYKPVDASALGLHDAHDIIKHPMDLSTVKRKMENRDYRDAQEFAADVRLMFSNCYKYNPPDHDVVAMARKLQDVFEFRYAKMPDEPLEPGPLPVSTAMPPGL

BRDT BD2 = target: T4, BRDT BD2 (Homo sapiens, UniProt Q58F21, Y66A); assay: TR-FRET competition assay, BRDT BD2; format: binding; conditions: TR-FRET competition with Reference Compound X; range stated for the listed group; read-out: mean pIC50 in the BRDT BD2 assay (converted)
T4 construct: BRDT (1-397) (Y66A) and (Y309A); made in house; host or cells: E. coli (pET28a)

BRD3 BD1 = target: T5, BRD3 BD1 (Homo sapiens, UniProt Q15059, Y348A); assay: TR-FRET competition assay, BRD3 BD1; format: binding; conditions: TR-FRET competition with Reference Compound X; range stated for the listed group; read-out: mean pIC50 in the BRD3 BD1 assay (converted)
T5 construct: BRD3 (1-435) (Y73A) and (Y348A); made in house; host or cells: E. coli (pET15b)
T5 sequence (Q15059 1-435 Y348A): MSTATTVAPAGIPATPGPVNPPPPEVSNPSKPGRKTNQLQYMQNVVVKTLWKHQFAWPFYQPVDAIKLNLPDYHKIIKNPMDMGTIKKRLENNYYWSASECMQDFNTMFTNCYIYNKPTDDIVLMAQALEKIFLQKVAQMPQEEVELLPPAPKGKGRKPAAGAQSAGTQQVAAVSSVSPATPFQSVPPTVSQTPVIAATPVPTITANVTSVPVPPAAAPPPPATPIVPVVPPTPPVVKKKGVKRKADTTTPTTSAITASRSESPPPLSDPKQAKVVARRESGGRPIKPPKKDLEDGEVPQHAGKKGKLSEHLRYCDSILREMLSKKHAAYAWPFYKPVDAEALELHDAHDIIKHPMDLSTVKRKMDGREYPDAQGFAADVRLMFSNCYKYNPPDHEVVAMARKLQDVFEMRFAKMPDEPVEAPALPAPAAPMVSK

BRD3 BD2 = target: T6, BRD3 BD2 (Homo sapiens, UniProt Q15059, Y73A); assay: TR-FRET competition assay, BRD3 BD2; format: binding; conditions: TR-FRET competition with Reference Compound X; range stated for the listed group; read-out: mean pIC50 in the BRD3 BD2 assay (converted)
T6 construct: BRD3 (1-435) (Y73A) and (Y348A); made in house; host or cells: E. coli (pET15b)
T6 sequence (Q15059 1-435 Y73A): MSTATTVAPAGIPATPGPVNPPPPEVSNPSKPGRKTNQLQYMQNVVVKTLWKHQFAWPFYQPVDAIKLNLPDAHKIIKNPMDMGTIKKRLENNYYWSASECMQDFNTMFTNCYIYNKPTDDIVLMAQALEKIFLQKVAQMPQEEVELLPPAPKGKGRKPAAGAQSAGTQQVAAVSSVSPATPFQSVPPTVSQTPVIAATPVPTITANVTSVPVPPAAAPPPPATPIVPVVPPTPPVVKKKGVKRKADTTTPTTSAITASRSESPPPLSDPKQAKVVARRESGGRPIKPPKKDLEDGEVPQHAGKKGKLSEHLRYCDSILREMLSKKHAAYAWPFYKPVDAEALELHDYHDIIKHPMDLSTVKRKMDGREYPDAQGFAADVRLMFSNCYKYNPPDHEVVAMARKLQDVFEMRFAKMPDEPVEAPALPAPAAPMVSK

BRD4 BD2 = target: T7, BRD4 BD2 (Homo sapiens, UniProt O60885, Y97A); assay: TR-FRET competition assay, BRD4 BD2; format: binding; conditions: TR-FRET competition with Reference Compound X, single mutant tandem protein; read-out: mean pIC50 in the BRD4 BD2 assay (converted)
T7 construct: BRD4 (1-477) (Y97A) and (Y390A); made in house; host or cells: E. coli (pET15b)

BRD4 BD1 = target: T8, BRD4 BD1 (Homo sapiens, UniProt O60885, Y390A); assay: TR-FRET competition assay, BRD4 BD1; format: binding; conditions: TR-FRET competition with Reference Compound X, single mutant tandem protein; read-out: mean pIC50 in the BRD4 BD1 assay (converted)
T8 construct: BRD4 (1-477) (Y97A) and (Y390A); made in house; host or cells: E. coli (pET15b)

MCP-1 production = assay: LPS induced MCP-1 production from human whole blood; format: cell-based; conditions: human whole blood, LPS 200 ng/mL, 18-24 hours; read-out: mean pIC50, LPS induced MCP-1 production (converted)
[1] = tested on: TNP-KLH induced Immunoglobulin-1 (IgG1) production; assay: TNP-KLH induced IgG1 production mouse assay; format: in vivo; conditions: for Day 14 IgG1: male CD1 mice
[2] = tested on: double mutant tandem BET proteins (BRD2, BRD3, BRD4, BRDT); assay: Fluorescence Polarisation binding of Reference Compound X to mutant tandem BET proteins; set-up: species or system human

SMILES	IC50 (BRD2 BD2) [nM]	IC50 (BRDT BD1) [nM]	IC50 (BRD2 BD1) [nM]	IC50 (BRDT BD2) [nM]	also measured
Cc1cc(-c2nccn2CC2CCCCO2)cn(C)c1=O (racemic) [Example 7, rac-1,3-dimethyl-5-(1-((tetrahydro-2H-pyran-2-yl)methyl)-1H-imidazol-2-yl)pyridin-2(1H)-one]	1000 to 50100	39.8 to 12600	12.6 to 7940	2000 to 25100	
Cc1cc(-c2ncc[nH]2)cn(C)c1=O [Example 1, 5-(1H-imidazol-2-yl)-1,3-dimethylpyridin-2(1H)-one]	1000 to 50100	39.8 to 12600	12.6 to 7940	> 50100	
Cc1cc(-c2nccn2CC2CC2)cn(C)c1=O [Example 3, 5-(1-(cyclopropylmethyl)-1H-imidazol-2-yl)-1,3-dimethylpyridin-2(1H)-one]	1000 to 50100	39.8 to 12600	12.6 to 7940	2000 to 25100	
Cc1cc(-c2nccn2CC(C)C)cn(C)c1=O [Example 5, 5-(1-isobutyl-1H-imidazol-2-yl)-1,3-dimethylpyridin-2(1H)-one]	1000 to 50100	39.8 to 12600	12.6 to 7940	2000 to 25100	
COCC(COC)n1cc(Cl)nc1-c1cc(C)c(=O)n(C)c1 [Example 22, 5-(4-chloro-1-(1,3-dimethoxypropan-2-yl)-1H-imidazol-2-yl)-1,3-dimethylpyridin-2(1H)-one]					IC50 (BRD4 BD2): 2000 nM; IC50 (BRD4 BD1): 50.1 nM; IC50 (MCP-1 production): 100 nM
Cc1cc(-c2nc(Cl)cn2CC2CCOCC2)cn(C)c1=O [Example 30, 5-(4-chloro-1-((tetrahydro-2H-pyran-4-yl)methyl)-1H-imidazol-2-yl)-1,3-dimethylpyridin-2(1H)-one]					IC50 (BRD3 BD1): 20 to 79.4 nM; % reduction in IgG1 from vehicle ([1]; day 14, 1.5 mg/kg BID oral): 0%; % reduction in IgG1 from vehicle ([1]; day 14, 5.0 mg/kg BID oral, ***P<0.01): 86*** %; % reduction in IgG1 from vehicle ([1]; day 14, 15 mg/kg BID oral, ***P<0.01): 99*** %; Day 14 IgG1 ([1]; 1.5 mg/kg BID oral, 14 days): 5.01 ± 3.30 µg/mL; Day 14 IgG1 ([1]; 5.0 mg/kg BID oral, 14 days): 0.85 ± 1.18 µg/mL; Day 14 IgG1 ([1]; 15 mg/kg BID oral, 14 days): 0.03 ± 0.03 µg/mL; adverse side effects during in life phase ([1]; male CD1 mice, 1.5, 5 or 15 mg/kg BID oral, 14 days): No adverse side effects were observed
Cc1cc(-c2nc(C(=O)O)cn2CC2CCOCC2)cn(C)c1=O [Example 35, 2-(1,5-dimethyl-6-oxo-1,6-dihydropyridin-3-yl)-1-((tetrahydro-2H-pyran-4-yl)methyl)-1H-imidazole-4-carboxylic acid]					IC50 (MCP-1 production): > 20000 nM
COc1ccc2c(c1)C(c1ccc(Cl)cc1)=N[C@@H](CC(=O)NCCCCCNC(=O)CCCCCC1(C)/C(=C/C=C/C=C/C3=[N+](CCCCS(=O)(=O)O)c4ccc(S(=O)(=O)O)cc4C3(C)C)N(CCCCS(=O)(=O)[O-])c3ccc(S(=O)(=O)O)cc31)c1nnc(C)n1-2 (stereo partly drawn) [Reference Compound X]					reduction in Kd versus non mutated, wild type tandem BET proteins [2]: > 1000 fold

More lines, main results first:

IC50 (BRD2 BD2) [nM]	IC50 (BRDT BD1) [nM]	IC50 (BRD2 BD1) [nM]	IC50 (BRDT BD2) [nM]	SMILES	also measured
1000 to 50100	39.8 to 12600	12.6 to 7940	2000 to 25100	CC(=O)N1CCCC(Cn2cc(Cl)nc2-c2cc(C)c(=O)n(C)c2)C1 (single isomer, unassigned) [Example 25, 5-(1-((1-acetylpiperidin-3-yl)methyl)-4-chloro-1H-imidazol-2-yl)-1,3-dimethylpyridin-2(1H)-one]	IC50 (BRD3 BD1): 20 to 79.4 nM; IC50 (BRD3 BD2): 251 to 1000 nM
1000 to 50100	39.8 to 12600	12.6 to 7940	2000 to 25100	Cc1cc(-c2nc(Cl)cn2CC2CCCOC2)cn(C)c1=O (single isomer, unassigned) [Example 29, 5-(4-chloro-1-((tetrahydro-2H-pyran-3-yl)methyl)-1H-imidazol-2-yl)-1,3-dimethylpyridin-2(1H)-one]	IC50 (BRD3 BD1): 20 to 79.4 nM; IC50 (BRD3 BD2): 251 to 1000 nM
1000 to 50100	39.8 to 12600	12.6 to 7940	2000 to 25100	Cc1cc(-c2nccn2CC2CCOCC2)cn(C)c1=O [Example 6, 1,3-dimethyl-5-(1-((tetrahydro-2H-pyran-4-yl)methyl)-1H-imidazol-2-yl)pyridin-2(1H)-one]	
